Reference: patent US10568876B2, “Tetrahydroisoquinoline derivatives useful as inhibitors of diacylglyceride O-acyltransferase 2” (Merck Sharp & Dohme Corp., priority 2014, dated 2020)

Molecular target: hDGAT2 (Homo sapiens (Human), UniProt Q96PD7)
Experiment: DGAT2 Enzymatic Activity Assay
Assay type: biochemical
Conditions: hDGAT2 Sf-9 membrane prep; 25 μM diolein, 10 μM oleoyl-CoA; triolein product by LC/MS/MS; read-out: IC50 values for inhibition of DGAT2
Procedure: Sf-9 insect cells were maintained in Grace's insect cell culture medium with 10% heated-inactivated fetal bovine serum, 1% Pluronic F-68 and 0.14 μg/ml Kanamycine sulfate in Erlenmeyer flasks at 28° C. in a shaker incubator. After infection with untagged hDGAT2 baculovirus at multiplicity of infection (MOI) 0.1 for 48 hours, cells were harvested. Cell pellets were suspended in buffer containing 10 mM Tris-HCl (pH 7.5), 1 mM EDTA (pH 8.0), 250 mM sucrose and Complete Protease Inhibitor Cocktail (Roche Diagnostics Corp., Indianapolis, Ill.), and sonicated on ice. Membrane fractions were isolated by ultracentrifugation (100,000×g pellet), resuspended in the same buffer, and frozen (−80° C.) for later use. The protein concentration was determined with the BCA Protein Assay kit (Pierce Biotechnology Inc., Rockford, Ill.). Expression of protein levels was analyzed by immunoblotting with goat polyclonal DGAT2 antibody C-15 and donkey anti-goat IgG HRP (Santa Cruz Biotechnology, Inc., Santa Cruz, Calif.) followed by detection with ECL reagent (GE Healthcare, Piscataway, N.J.).
LC/MS/MS analyses were performed using Thermal Fisher's LX4-TSQ Vantage system. This system consists of an Agilent binary high-performance liquid chromatography (HPLC) pumps and a TSQ Vantage triple quadrupole MS/MS instrument. For each sample, 2 μL, samples from the top organic layer of in-plate liquid-liquid extraction were injected onto a Thermo Betabasic C4 column (2.1 mm×20 mm, 5 μm particle size). The samples were then eluted using the following conditions; mobile phase: methanol/water with 0.1% ammonium format=92/8 (v/v), flow rate: 1 mL/min, temperature: 25 C. Data was acquired in positive mode using a heated electrospray ionization (HESI) interface. The operational parameters for the TSQ Vantage MS/MS instrument were a spray voltage of 3000 V, capillary temperature of 280° C., vaporizer temperature 400° C., shealth gas 60 arbitrary unit, Aux gas 40 arbitrary units, S-lens 113 and collision gas 0.16 Pascals. […] (SRM) chromatograms of triolein (Q1: 902.9>Q3: 602.3) and internal standard (Q1: 902.9>Q3: 602.3) were collected for 40 sec. The peak area was integrated by Xcalibur Quan software. The ratio between the triolein generated in the reaction and spiked in internal standard were used to generate percentage inhibition and IC50 values. Compound percentage inhibition was calculated by the following formula: Inhibition %=1-[(compound response low control)/(high control low control)]×100%. Potent compounds were titrated and IC50 were calculated by 4 parameter sigmoidal curve fitting formula.
DGAT2 activity was determined by measuring the amount of enzymatic product triolein (1,2,3-Tri(cis-9-octadecenoyl)glycerol) using the membrane prep mentioned above. The assay was carried out in deep well 384 plates in a final volume of 40 μL at room temperature. The assay mixture contained the following: assay buffer (100 mM Tris.Cl, pH 7.0, 20 mM MgCl2, 5% ethanol), 25 μM of diolein, 10 μM of oleoyl-CoA and 10 ng/μL of DGAT2 membrane.

Sequence of hDGAT2 (Q96PD7 whole entry): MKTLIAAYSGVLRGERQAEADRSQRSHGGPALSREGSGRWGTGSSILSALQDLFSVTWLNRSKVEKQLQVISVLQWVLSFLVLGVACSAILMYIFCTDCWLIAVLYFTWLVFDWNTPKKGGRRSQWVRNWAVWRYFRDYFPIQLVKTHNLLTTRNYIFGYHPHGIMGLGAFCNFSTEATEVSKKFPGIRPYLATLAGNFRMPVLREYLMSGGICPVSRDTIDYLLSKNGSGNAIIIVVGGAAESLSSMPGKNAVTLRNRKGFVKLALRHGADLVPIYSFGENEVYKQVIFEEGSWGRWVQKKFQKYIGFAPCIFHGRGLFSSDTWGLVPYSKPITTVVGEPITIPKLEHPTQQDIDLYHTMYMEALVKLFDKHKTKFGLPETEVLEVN

IC50 [µM] | Structure (SMILES)
0.0116 | CC(C)(C)NC(=O)N1CCc2c(-c3cccc(-n4cccn4)c3)ccc(CNC(=O)[C@@H]3C[C@H]3c3ccccc3)c2C1 (relative stereo) [Example 34, 5-(3-(1H-pyrazol-1-yl)phenyl)-N-(tert-butyl)-8-(((trans)-2-phenylcyclopropanecarboxamido)methyl)-3,4-dihydroisoquinoline-2(1H)-carboxamide]
0.0161 | CC(C)(C)NC(=O)N1CCc2c(-c3cccc(C#N)c3)ccc(CNC(=O)[C@@H]3C[C@H]3c3ccccc3)c2C1 (relative stereo) [Example 22, N-(tert-butyl)-5-(3-cyanophenyl)-8-(((trans)-2-phenylcyclopropanecarboxamido)methyl)-3,4-dihydroisoquinoline-2(1H)-carboxamide]
2.93 | COC(=O)c1cccc(-c2ccc(CNC(=O)C3CC3c3ccccc3)c3c2CCN(C(=O)Cc2ccccc2)C3)c1 (stereo not drawn) [Example 112, methyl 3-(2-(2-phenylacetyl)-8-((2-phenylcyclopropanecarboxamido)methyl)-1,2,3,4-tetrahydroisoquinolin-5-yl)benzoate]
4.77 | Cc1noc([C@@H]2C[C@H]2C(=O)NCc2ccc(-c3cccc(OC(F)(F)F)c3)c3c2CN(Cc2cnccn2)CC3)n1 (relative stereo) [Example 107, (trans)-2-(3-methyl-1,2,4-oxadiazol-5-yl)-N-((2-(pyrazin-2-ylmethyl)-5-(3-(trifluoromethoxy)phenyl)-1,2,3,4-tetrahydroisoquinolin-8-yl)methyl)cyclopropanecarboxamide]
1.64 | COc1cccc(-c2ccc(CNC(=O)[C@@H]3C[C@H]3c3ccccc3)c3c2CCN(C(=O)Nc2cc(C)no2)C3)c1 (relative stereo) [Example 20, 5-(3-methoxyphenyl)-N-(3-methylisoxazol-5-yl)-8-(((trans)-2-phenylcyclopropanecarboxamido)methyl)-3,4-dihydroisoquinoline-2(1H)-carboxamide]
0.302 | COc1cccc(-c2ccc(CNC(=O)[C@@H]3C[C@H]3c3ccccc3)c3c2CCN(C(=O)Nc2ccon2)C3)c1 (relative stereo) [Example 23, N-(isoxazol-3-yl)-5-(3-methoxyphenyl)-8-(((trans)-2-phenylcyclopropanecarboxamido)methyl)-3,4-dihydroisoquinoline-2(1H)-carboxamide]
0.166 | CC(C)(C)NC(=O)N1CCc2c(-c3cncc(C(C)(C)O)c3)ccc(CNC(=O)[C@@H]3C[C@H]3c3ccccc3)c2C1 (relative stereo) [Example 10, N-(tert-butyl)-5-(5-(2-hydroxypropan-2-yl)pyridin-3-yl)-8-(((trans)-2-phenylcyclopropanecarboxamido)methyl)-3,4-dihydroisoquinoline-2(1H)-carboxamide]
0.098 | Cc1noc(C2CC2C(=O)NCc2ccc(-c3cccc(-n4cccn4)c3)c3c2CN(C(=O)N[C@@]2(C)CCS(=O)(=O)C2)CC3)n1 (stereo partly drawn) [Example 79, 5-(3-(1H-pyrazol-1-yl)phenyl)-N-((S)-3-methyl-1,1-dioxidotetrahydrothiophen-3-yl)-8-((2-(3-methyl-1,2,4-oxadiazol-5-yl)cyclopropanecarboxamido)methyl)-3,4-dihydroisoquinoline-2(1H)-carboxamide]
1.82 | COC(=O)c1cccc(-c2ccc(CNC(=O)C3CC3c3ccccc3)c3c2CCN(C(=O)CC(F)(F)F)C3)c1 (stereo not drawn) [Example 129, methyl 3-(8-((2-phenylcyclopropanecarboxamido)methyl)-2-(3,3,3-trifluoropropanoyl)-1,2,3,4-tetrahydroisoquinolin-5-yl)benzoate]
3.78 | COC(=O)c1cccc(-c2ccc(CNC(=O)C3CC3c3ccccc3)c3c2CCN(Cc2ncn(C)c2C)C3)c1 (stereo not drawn) [Example 95, methyl 3-(2-((1,5-dimethyl-1H-imidazol-4-yl)methyl)-8-((2-phenylcyclopropanecarboxamido)methyl)-1,2,3,4-tetrahydroisoquinolin-5-yl)benzoate]
1.54 | COc1ccc(CNC(=O)CN2CCc3c(-c4cccc(OC(F)(F)F)c4)ccc(CNC(=O)C4CC4c4nc(C)no4)c3C2)c(OC)c1 (stereo not drawn) [Example 85, N-((2-(2-((2,4-dimethoxybenzyl)amino)-2-oxoethyl)-5-(3-(trifluoromethoxy)phenyl)-1,2,3,4-tetrahydroisoquinolin-8-yl)methyl)-2-(3-methyl-1,2,4-oxadiazol-5-yl)cyclopropanecarboxamide]
0.499 | COc1cccc(-c2ccc(CNC(=O)[C@@H]3C[C@H]3c3ccccc3)c3c2CCN(C(=O)NC(C)(C)CC(C)(C)C)C3)c1 (relative stereo) [Example 61, 5-(3-methoxyphenyl)-8-(((trans)-2-phenylcyclopropanecarboxamido)methyl)-N-(2,4,4-trimethylpentan-2-yl)-3,4-dihydroisoquinoline-2(1H)-carboxamide]
1.59 | COC(=O)c1cccc(-c2ccc(CNC(=O)C3CC3c3ccccc3)c3c2CCN(C(=O)C2(C#N)CC2)C3)c1 (stereo not drawn) [Example 128, methyl 3-(2-(1-cyanocyclopropanecarbonyl)-8-((2-phenylcyclopropanecarboxamido)methyl)-1,2,3,4-tetrahydroisoquinolin-5-yl)benzoate]
1.23 | COC(=O)c1cccc(-c2ccc(CNC(=O)C3CC3c3ccccc3)c3c2CCN(C(=O)CCC(F)(F)F)C3)c1 (stereo not drawn) [Example 127, methyl 3-(8-((2-phenylcyclopropanecarboxamido)methyl)-2-(4,4,4-trifluorobutanoyl)-1,2,3,4-tetrahydroisoquinolin-5-yl)benzoate]
0.831 | COc1cccc(-c2ccc(CNC(=O)[C@@H]3C[C@H]3c3ccccc3)c3c2CCN(C(=O)C(C)(C)O)C3)c1 (relative stereo) [Example 117, (trans)-N-((2-(2-hydroxy-2-methylpropanoyl)-5-(3-methoxyphenyl)-1,2,3,4-tetrahydroisoquinolin-8-yl)methyl)-2-phenylcyclopropanecarboxamide]
6.09 | Cc1cc(C)n(-c2cccc(-c3ccc(CNC(=O)[C@@H]4C[C@H]4c4ccccc4)c4c3CCN(C(=O)NC(C)(C)C)C4)c2)n1 (relative stereo) [Example 31, N-(tert-butyl)-5-(3-(3,5-dimethyl-1H-pyrazol-1-yl)phenyl)-8-(((trans)-2-phenylcyclopropanecarboxamido)methyl)-3,4-dihydroisoquinoline-2(1H)-carboxamide]
0.722 | Cc1noc(C2CC2C(=O)NCc2ccc(-c3cccc(OC(F)(F)F)c3)c3c2CN(CC(=O)NC2CC2)CC3)n1 (stereo not drawn) [Example 82, N-((2-(2-(cyclopropylamino)-2-oxoethyl)-5-(3-(trifluoromethoxy)phenyl)-1,2,3,4-tetrahydroisoquinolin-8-yl)methyl)-2-(3-methyl-1,2,4-oxadiazol-5-yl)cyclopropanecarboxamide]
0.352 | CC(=O)Nc1cccc(-c2ccc(CNC(=O)[C@@H]3C[C@H]3c3ccccc3)c3c2CCN(C(=O)NC(C)(C)C)C3)c1 (relative stereo) [Example 36, 5-(3-acetamidophenyl)-N-(tert-butyl)-8-(((trans)-2-phenylcyclopropanecarboxamido)methyl)-3,4-dihydroisoquinoline-2(1H)-carboxamide]
5.49 | COC(=O)c1cccc(-c2ccc(CNC(=O)C3CC3c3ccccc3)c3c2CCN(C(=O)c2cccc(-n4cccc4)c2)C3)c1 (stereo not drawn) [Example 124, methyl 3-(2-(3-(1H-pyrrol-1-yl)benzoyl)-8-((2-phenylcyclopropanecarboxamido)methyl)-1,2,3,4-tetrahydroisoquinolin-5-yl)benzoate]
4.28 | COc1cccc(-c2ccc(CNC(=O)[C@@H]3C[C@H]3c3ccccc3)c3c2CCN(C(=O)NCCCC(=O)O)C3)c1 (relative stereo) [Example 64, 4-(5-(3-methoxyphenyl)-8-(((trans)-2-phenylcyclopropanecarboxamido)methyl)-1,2,3,4-tetrahydroisoquinoline-2-carboxamido)butanoic acid]

Structure (SMILES) | IC50 [µM]
CCCNC(=O)N1CCc2c(-c3cccc(OC)c3)ccc(CNC(=O)[C@@H]3C[C@H]3c3ccccc3)c2C1 (relative stereo) [Example 70] | 0.0204
